Laboratory results reported in PubChem BioAssay (NCI).
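GI50 = concentration required for 50% inhibition of growth. At the TGI there is no net growth.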

Legend:
Experiment in all cases: NCI-60 cell line screen, 384-well format
SF-295 CNS = tested on: SF-295 CNS
HCC-2998 colon = tested on: HCC-2998 colon
UACC-257 melanoma = tested on: UACC-257 melanoma
UACC-62 melanoma = tested on: UACC-62 melanoma
A498 renal = tested on: A498 renal
SF-539 CNS = tested on: SF-539 CNS
NCI-H23 lung = tested on: NCI-H23 lung
CAKI-1 renal = tested on: CAKI-1 renal
SK-MEL-2 melanoma = tested on: SK-MEL-2 melanoma
SW-620 colon = tested on: SW-620 colon
UO-31 renal = tested on: UO-31 renal
MDA-MB-231 breast = tested on: MDA-MB-231 breast
MALME-3M melanoma = tested on: MALME-3M melanoma
COLO 205 colon = tested on: COLO 205 colon
RPMI-8226 leukemia = tested on: RPMI-8226 leukemia
BT-549 breast = tested on: BT-549 breast
CCRF-CEM leukemia = tested on: CCRF-CEM leukemia
SN12C renal = tested on: SN12C renal
RXF 393 renal = tested on: RXF 393 renal
MDA-MB-468 breast = tested on: MDA-MB-468 breast
SF-268 CNS = tested on: SF-268 CNS
SR leukemia = tested on: SR leukemia
HL-60(TB) leukemia = tested on: HL-60(TB) leukemia
SK-MEL-5 melanoma = tested on: SK-MEL-5 melanoma
SK-OV-3 ovarian = tested on: SK-OV-3 ovarian
OVCAR-5 ovarian = tested on: OVCAR-5 ovarian
TK-10 renal = tested on: TK-10 renal
K-562 leukemia = tested on: K-562 leukemia
M14 melanoma = tested on: M14 melanoma
SNB-19 CNS = tested on: SNB-19 CNS
IGROV1 ovarian = tested on: IGROV1 ovarian
SNB-75 CNS = tested on: SNB-75 CNS
NCI-H226 lung = tested on: NCI-H226 lung
ACHN renal = tested on: ACHN renal
MOLT-4 leukemia = tested on: MOLT-4 leukemia
EKVX NSCLC = tested on: EKVX NSCLC
DU-145 prostate = tested on: DU-145 prostate
PC-3 prostate = tested on: PC-3 prostate
NCI-H322M lung = tested on: NCI-H322M lung
OVCAR-3 ovarian = tested on: OVCAR-3 ovarian
NCI-H460 NSCLC = tested on: NCI-H460 NSCLC
HCT-116 colon = tested on: HCT-116 colon
HOP-92 NSCLC = tested on: HOP-92 NSCLC
HCT-15 colon = tested on: HCT-15 colon
NCI/ADR-RES ovarian = tested on: NCI/ADR-RES ovarian
KM12 colon = tested on: KM12 colon
MDA-MB-435 melanoma = tested on: MDA-MB-435 melanoma
T-47D breast = tested on: T-47D breast
SK-MEL-28 melanoma = tested on: SK-MEL-28 melanoma
NCI-H522 lung = tested on: NCI-H522 lung
HT29 colon = tested on: HT29 colon
HS 578T breast = tested on: HS 578T breast
786-0 renal = tested on: 786-0 renal
A549 NSCLC = tested on: A549 NSCLC
OVCAR-4 ovarian = tested on: OVCAR-4 ovarian
HOP-62 NSCLC = tested on: HOP-62 NSCLC
MCF7 breast = tested on: MCF7 breast
U251 glioblastoma = tested on: U251 glioblastoma
LOX IMVI melanoma = tested on: LOX IMVI melanoma

Cc1cc(Nc2nc(N[C@@H](C)c3ncc(F)cn3)ncc2Cl)n[nH]1
GI50 (SF-295 CNS): 47.4 µM | TGI (SF-295 CNS): > 100 µM | GI50 (HCC-2998 colon): 28.3 µM | TGI (HCC-2998 colon): > 100 µM | GI50 (UACC-257 melanoma): > 100 µM | TGI (UACC-257 melanoma): > 100 µM | GI50 (UACC-62 melanoma): 40.7 µM | TGI (UACC-62 melanoma): > 100 µM | GI50 (A498 renal): 35.8 µM | TGI (A498 renal): > 100 µM | GI50 (SF-539 CNS): 14 µM | TGI (SF-539 CNS): 34.1 µM | GI50 (NCI-H23 lung): 35.2 µM | TGI (NCI-H23 lung): > 100 µM | GI50 (CAKI-1 renal): 23.7 µM | TGI (CAKI-1 renal): > 100 µM | GI50 (SK-MEL-2 melanoma): 44.7 µM | TGI (SK-MEL-2 melanoma): 85.1 µM | GI50 (SW-620 colon): 24.3 µM | TGI (SW-620 colon): 91.3 µM | GI50 (UO-31 renal): 36.7 µM | TGI (UO-31 renal): > 100 µM | GI50 (MDA-MB-231 breast): 27.5 µM | TGI (MDA-MB-231 breast): > 100 µM | GI50 (MALME-3M melanoma): 52.8 µM | TGI (MALME-3M melanoma): > 100 µM | GI50 (COLO 205 colon): 41 µM | TGI (COLO 205 colon): > 100 µM | GI50 (RPMI-8226 leukemia): 18.4 µM | TGI (RPMI-8226 leukemia): 73 µM | GI50 (BT-549 breast): 20.7 µM | TGI (BT-549 breast): 78.1 µM | GI50 (CCRF-CEM leukemia): 20.7 µM | TGI (CCRF-CEM leukemia): 45.1 µM | GI50 (SN12C renal): 31.3 µM | TGI (SN12C renal): > 100 µM | GI50 (RXF 393 renal): 18.9 µM | TGI (RXF 393 renal): 46 µM | GI50 (MDA-MB-468 breast): 17.3 µM | TGI (MDA-MB-468 breast): 33.1 µM | GI50 (SF-268 CNS): 18.4 µM | TGI (SF-268 CNS): 63.4 µM | GI50 (SR leukemia): 5.01 µM | TGI (SR leukemia): 12.2 µM | GI50 (HL-60(TB) leukemia): 16 µM | TGI (HL-60(TB) leukemia): 31 µM | GI50 (SK-MEL-5 melanoma): 30.5 µM | TGI (SK-MEL-5 melanoma): > 100 µM | GI50 (SK-OV-3 ovarian): 18.6 µM | TGI (SK-OV-3 ovarian): 78.1 µM | GI50 (OVCAR-5 ovarian): 45.1 µM | TGI (OVCAR-5 ovarian): > 100 µM | GI50 (TK-10 renal): 34.6 µM | TGI (TK-10 renal): > 100 µM | GI50 (K-562 leukemia): 27.9 µM | TGI (K-562 leukemia): > 100 µM | GI50 (M14 melanoma): 61.7 µM | TGI (M14 melanoma): > 100 µM | GI50 (SNB-19 CNS): 47.5 µM | TGI (SNB-19 CNS): > 100 µM | GI50 (IGROV1 ovarian): 27.8 µM | TGI (IGROV1 ovarian): > 100 µM | GI50 (SNB-75 CNS): 8.7 µM | TGI (SNB-75 CNS): 27.9 µM | GI50 (NCI-H226 lung): 12 µM | TGI (NCI-H226 lung): > 100 µM | GI50 (ACHN renal): 31.2 µM | TGI (ACHN renal): > 100 µM | GI50 (MOLT-4 leukemia): 16.7 µM | TGI (MOLT-4 leukemia): 33.8 µM | GI50 (EKVX NSCLC): 23.9 µM | TGI (EKVX NSCLC): 79.3 µM | GI50 (DU-145 prostate): 37.1 µM | TGI (DU-145 prostate): > 100 µM | GI50 (PC-3 prostate): 42.1 µM | TGI (PC-3 prostate): > 100 µM | GI50 (NCI-H322M lung): 42.6 µM | TGI (NCI-H322M lung): > 100 µM | GI50 (OVCAR-3 ovarian): 43.8 µM | TGI (OVCAR-3 ovarian): > 100 µM | GI50 (NCI-H460 NSCLC): 21.5 µM | TGI (NCI-H460 NSCLC): > 100 µM | GI50 (HCT-116 colon): 17.4 µM | TGI (HCT-116 colon): > 100 µM | GI50 (HOP-92 NSCLC): 27.8 µM | TGI (HOP-92 NSCLC): 91.3 µM | GI50 (HCT-15 colon): 26.4 µM | TGI (HCT-15 colon): > 100 µM | GI50 (NCI/ADR-RES ovarian): 20.2 µM | TGI (NCI/ADR-RES ovarian): 60.4 µM | GI50 (KM12 colon): 0.381 µM | TGI (KM12 colon): > 100 µM | GI50 (MDA-MB-435 melanoma): 17.1 µM | TGI (MDA-MB-435 melanoma): > 100 µM | GI50 (T-47D breast): 29.8 µM | TGI (T-47D breast): > 100 µM | GI50 (SK-MEL-28 melanoma): 59.1 µM | TGI (SK-MEL-28 melanoma): > 100 µM | GI50 (NCI-H522 lung): 4.66 µM | TGI (NCI-H522 lung): 28.5 µM | GI50 (HT29 colon): 27.4 µM | TGI (HT29 colon): > 100 µM | GI50 (HS 578T breast): 11.6 µM | TGI (HS 578T breast): 29.9 µM | GI50 ([…]-0 renal): 33.6 µM | TGI (786-0 renal): > 100 µM | GI50 (A549 NSCLC): 30.4 µM | TGI (A549 NSCLC): > 100 µM | GI50 (OVCAR-4 ovarian): 77.8 µM | TGI (OVCAR-4 ovarian): > 100 µM | GI50 (HOP-62 NSCLC): 39.1 µM | TGI (HOP-62 NSCLC): > 100 µM | GI50 (MCF7 breast): 44.3 µM | TGI (MCF7 breast): > 100 µM | GI50 (U251 glioblastoma): 32.1 µM | TGI (U251 glioblastoma): > 100 µM | GI50 (LOX IMVI melanoma): 27.6 µM | TGI (LOX IMVI melanoma): 71 µM
